Patent US6528528B2 (Warner-Lambert Company, priority 1997, dated 2003)
Read-outs that look alike come from different tables or passages of the source.

How the values were obtained:
[1] = target: T1, rabbit reticulocyte 15-LO (Oryctolagus cuniculus, UniProt P12530); experiment: Rabbit Reticulocyte 15-LO Assay (h15LO); type: biochemical; conditions: for IC50: 2U rabbit reticulocyte 15-LO, 174 μM linoleic acid, 15 minutes at 4° C.; for h15LO, value given as bare %: concentration not given
T1 construct: Fifteen-lipoxygenase was obtained from phenylhydrazine-treated rabbits and purified per the method of Rapoport; from tissue; host or cells: reticulocytes of phenylhydrazine-treated rabbits
T1 sequence (P12530 1-663): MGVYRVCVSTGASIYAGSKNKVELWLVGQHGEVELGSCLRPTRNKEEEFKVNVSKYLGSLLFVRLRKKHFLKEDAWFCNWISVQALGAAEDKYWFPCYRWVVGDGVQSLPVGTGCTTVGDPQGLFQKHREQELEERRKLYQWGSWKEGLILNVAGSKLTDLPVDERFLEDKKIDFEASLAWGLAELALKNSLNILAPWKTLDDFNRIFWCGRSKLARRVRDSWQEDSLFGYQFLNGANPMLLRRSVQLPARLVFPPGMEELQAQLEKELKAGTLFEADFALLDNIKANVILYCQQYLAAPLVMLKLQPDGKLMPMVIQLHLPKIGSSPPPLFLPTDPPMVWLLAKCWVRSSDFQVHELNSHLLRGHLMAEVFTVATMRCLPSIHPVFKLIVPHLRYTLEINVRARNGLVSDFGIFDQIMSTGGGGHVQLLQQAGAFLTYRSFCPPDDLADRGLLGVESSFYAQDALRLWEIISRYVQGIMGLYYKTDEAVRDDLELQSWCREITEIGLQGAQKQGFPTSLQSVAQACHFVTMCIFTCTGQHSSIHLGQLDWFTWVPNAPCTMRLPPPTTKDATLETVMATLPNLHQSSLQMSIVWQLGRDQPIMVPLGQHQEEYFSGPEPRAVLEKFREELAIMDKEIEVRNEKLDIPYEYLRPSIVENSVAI
Summary of the method: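 Purified rabbit reticulocyte 15-LO (2U) incubated with inhibitor and 174 μM linoleic acid in PBS with 0.2% Na cholate for 15 minutes at 4° C. 13-HPODE quantified by peak area against 13-HODE standard curve; % inhibition relative to uninhibited reaction.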

[2] = Table 1, read-out: h15LO % Inhibition at 10 μM
[3] = 0.25 h, Table 2, read-out: h15LO % @ 10 μM

Row | IC50 ([1]; Table 2) | melting point | SMILES | also measured
1 | 14 nM | 190 to 193 °C | COc1ccc(C(=O)Nc2ccc(Cl)c(Cl)c2)cc1NC(=S)Nc1ccc(S(N)(=O)=O)cc1 [Example 105, N-(3,4-Dichlorophenyl)-4-methoxy-3-[3-(4-sulfamoyl-phenyl)-thioureido]-benzamide] | 
2 |  | 215 to 218 °C | COc1ccc(NC(=O)c2ccc(Cl)c(Cl)c2)cc1N [Example 23, 3,4-Dichloro-N-(3-amino-4-methoxyphenyl)-benzamide] | IC50 ([1]; Table 1): 26 nM
3 | 11 nM | 174 to 175 °C | COc1ccc(C(=O)Nc2ccccc2)cc1NC(=S)Nc1ccc(Cl)c([N+](=O)[O-])c1 [Example 77, 3-[3-(4-Chloro-3-nitrophenyl)-thioureido]-4-methoxy-N-phenyl-benzamide] | 
4 |  | 166 to 168 °C | COc1ccc(C(=O)Nc2ccc(F)cc2F)cc1N [Example 14, 3-Amino-4-methoxy-N-(2,4-difluorophenyl)-benzamide] | inhibition at 10 µM [1, 2]: 68%
5 |  | 115 to 117 °C | CCc1ccc(C(=O)Nc2ccc(Cl)c(Cl)c2)cc1N [Example 18, 3-Amino-4-ethyl-N-(3,4-dichlorophenyl)-benzamide] | IC50 ([1]; Table 1): 2510 nM
6 |  | 190 to 194 °C | COc1ccc(C(=O)Nc2ccc(C)cc2)cc1N [Example 7, 3-Amino-4-methoxy-N-(4-methylphenyl)-benzamide] | inhibition at 10 µM [1, 2]: 67%
7 | 10 nM | 168 to 170 °C | COc1ccc(C(=O)Nc2ccccc2)cc1Nc1cccc(Cl)c1 [Example 31, 3-(3-Chloro-phenylamino)-4-methoxy-N-phenyl-benzamide] | 
8 | 9 nM | 180 to 183 °C | COc1ccc(C(=O)Nc2ccc(F)c(F)c2)cc1NC(=S)Nc1cc(Cl)cc(Cl)c1 [Example 107, 3-[3-(3,5-Dichlorophenyl)-thioureido]-N-(3,4-difluoro-phenyl)-4-methoxy-benzamide] | 
9 | 1460 nM | 170 to 171 °C | COc1ccc(NC(=O)c2ccc(O)c(Nc3cc(Cl)cc(Cl)c3)c2)cc1O [Example 59, 3-(3,5-Dichloro-phenylamino)-4-hydroxy-N-(3-hydroxy-4-methoxyphenyl)-benzamide] | 
10 |  | 193 to 196 °C | COc1ccc(C(=O)Nc2cccnc2)cc1N [Example 5, 3-Amino-4-methoxy-N-(3-pyridyl)-benzamide] | IC50 ([1]; Table 1): 38 nM
11 |  | 105 to 108 °C | COc1ccc(CNc2ccccc2)cc1NS(=O)(=O)c1cc(Cl)cc(Cl)c1 [Example 209, 3,5-Dichloro-N-(2-methoxy-5-phenylaminomethyl-phenyl)-benzenesulfonamide] | h15LO, value given as bare % ([1]; Table 2): 80.94%
12 |  | 130 to 131 °C | COc1ccc(C(=O)Oc2ccccc2)cc1Nc1ccccc1 [Example 55, 3-(Phenylamino)-4-methoxybenzoic Acid, Phenyl Ester] | inhibition at 10 µM [1, 3]: 54%
13 |  | 225 to 227 °C | COc1ccc(C(=O)Nc2ccccc2)cc1NC(=NC#N)Nc1cc(Cl)cc(Cl)c1 [Example 256, 3-[[(Cyanoimino)[(3,5-dichlorophenyl)amino]methyl]amino]-4-methoxy-N-phenyl-benzamide] | h15LO, value given as bare % ([1]; Table 2): 45%
14 | 48 nM | 205 to 210 °C | COc1ccc(C(=O)Nc2ccccc2)cc1NS(=O)(=O)c1cc(Br)c(Br)s1 [Example 126, 3-(4,5-Dibromothiophene-2-sulfonylamino)-4-methoxy-N-phenyl-benzamide] | 
15 | 390 nM | 182 to 183 °C | COc1ccc(C(=O)Nc2ccccc2)cc1NC(=S)Nc1ccc(F)cc1 [Example 78, 3-[3-(4-Fluorophenyl)-thioureido]-4-methoxy-N-phenyl-benzamide] | 
16 |  | 133 to 134 °C | CCc1ccc(C(=O)Nc2ccccc2)cc1Nc1cccc(C(F)(F)F)c1 [Example 41, 4-Ethyl-3-(3-trifluoromethyl-phenylamino)-N-phenyl-benzamide] | inhibition at 10 µM [1, 3]: 65%
17 | 52 nM | 196 to 197 °C | COc1ccc(C(=O)Nc2ccccc2)cc1NC(=S)Nc1cccc(C(=O)O)c1 [Example 113, 3-[3-(2-Methoxy-5-phenylcarbamoyl-phenyl)-thioureido]-benzoic Acid] | 

Row | IC50 ([1]; Table 2) | melting point | SMILES | also measured
18 | 41 nM | 198 to 200 °C | COc1ccc(C(=O)Nc2ccccc2)cc1NC(=S)Nc1ccc(C(C)(C)C)cc1 [Example 64, 3-[3-(4-tert-Butyl-phenyl)-thioureido]-4-methoxy-N-phenyl-benzamide] | 
19 | 167 nM | 107 to 109 °C | COc1ccc(C(=O)Nc2ccccc2)cc1NS(=O)(=O)c1ccccc1Cl [Example 127, 3-(2-Chlorobenzenesulfonylamino)-4-methoxy-N-phenyl-benzamide] | 
20 | 124 nM | > 280 °C | COc1ccc(C(=O)Nc2ccccc2)cc1NC(=S)Nc1ccc(S(=O)(=O)O)cc1 [Example 82, 4-[3-(2-Methoxy-5-phenylcarbamoyl-phenyl)-thioureido]-benzenesulfonic Acid] | 
21 | 1190 nM | 152 to 153 °C | COc1ccc(C(=O)Nc2ccccc2)cc1OC(=O)Oc1ccccc1 [Example 144, 2-Methoxy-5-phenylcarbamoyl-carbonic acid-phenyl ester phenyl ester] | 
22 | 1000 nM | 172 to 174 °C | COc1ccc(C(=O)Nc2ccccc2)cc1NC(=S)Nc1ccccc1C [Example 98, 4-Methoxy-N-phenyl-3-(3-o-tolyl-thioureido)-benzamide] | 
23 | 50 nM | 151 to 152 °C | COc1ccc(C(=O)Nc2ccc(F)cc2)cc1Nc1ccccc1 [Example 39, 3-Phenylamino-4-methoxy-N-(4-fluorophenyl)-benzamide] | 
24 | 82 nM | 179 to 180 °C | COc1ccc(C(=O)Nc2ccccc2)cc1NC(=S)Nc1ccc(N(C)C)cc1 [Example 93, 3-[3-(4-Dimethylaminophenyl)-thioureido]-4-methoxy-N-phenyl-benzamide] | 
25 | 629 nM | 165 to 166 °C | O=C(Nc1ccc(F)cc1)c1ccc(OC(F)(F)F)c(NC(=S)Nc2cc(Cl)cc(Cl)c2)c1 [Example 163, 3-[3-(3,5-Dichloro-phenyl)-thioureido]-4-trifluoromethoxy-N-(4-fluoro-phenyl)-benzamide] | 
26 | 31 nM | 197 to 199 °C | COc1ccc(C(=O)Nc2ccccc2)cc1NS(=O)(=O)c1cccc(Cl)c1 [Example 123, 3-(3-Chloro-benzenesulfonylamino)-4-methoxy-N-phenyl-benzamide] | 
27 |  | 171 to 172 °C | COc1ccc(C(=O)Nc2ccc(F)c(F)c2)cc1N [Example 15, 3-Amino-4-methoxy-N-(3,4-difluorophenyl)-benzamide] | IC50 ([1]; Table 1): 9 nM
28 | 56 nM | 170 to 171 °C | COc1ccc(C(=O)Nc2ccccc2)cc1NC(=S)Nc1ccc(OC)c(OC)c1 [Example 72, 3-[3-(3,4-Dimethoxyphenyl)-thioureido]-4-methoxy-N-phenyl-benzamide] | 
29 | 28 nM | 209 to 211 °C | COc1ccc(C(=O)Nc2ccccc2)cc1NS(=O)(=O)c1ccc(F)cc1 [Example 125, 3-(4-Fluoro-benzenesulfonylamino)-4-methoxy-N-phenyl-benzamide] | 
30 | 44 nM | 183 to 186 °C | COc1ccc(NC(=O)c2ccc(Cl)c(Cl)c2)cc1NC(=S)Nc1cc(Cl)cc(Cl)c1 [Example 115, 3,4-Dichloro-N-{3-[3-(3,5-dichlorophenyl)-thioureido]-4-methoxyphenyl}-benzamide] | 
31 | 26 nM | 191 to 192 °C | COc1ccc(C(=O)Nc2cccnc2)cc1NC(=S)Nc1cccc(C(=O)O)c1 [Example 112, 3-{3-[2-Methoxy-5-(pyridin-3-ylcarbamoyl)-phenyl]-thioureido}-benzoic acid] | 
32 | 11 nM | 168 to 171 °C | COc1ccc(C(=O)Nc2ccccc2)cc1NC(=S)Nc1cccc(C)c1 [Example 95, 4-Methoxy-N-phenyl-3-(3-m-tolyl-thioureido)-benzamide] | 
33 | 187 nM | 208 to 210 °C | COc1ccc(C(=O)Nc2ccccc2)cc1NS(=O)(=O)c1cccc([N+](=O)[O-])c1 [Example 122, 3-(3-Nitro-benzenesulfonylamino)-4-methoxy-N-phenyl-benzamide] | 
34 |  | 153 to 157 °C | COc1ccc(C(=O)Nc2ccc(C)c(Cl)c2)cc1N [Example 12, 3-Amino-4-methoxy-N-(3-chloro-4-methylphenyl)-benzamide] | IC50 ([1]; Table 1): 73 nM
